Where a name gives a salt, the structure may show the parent alone.
Experiments:
5-HT1A receptors = target: T1, 5-HT1A receptors (Homo sapiens, UniProt P08908); details: cited from earlier work
T1 sequence (P08908 1-422): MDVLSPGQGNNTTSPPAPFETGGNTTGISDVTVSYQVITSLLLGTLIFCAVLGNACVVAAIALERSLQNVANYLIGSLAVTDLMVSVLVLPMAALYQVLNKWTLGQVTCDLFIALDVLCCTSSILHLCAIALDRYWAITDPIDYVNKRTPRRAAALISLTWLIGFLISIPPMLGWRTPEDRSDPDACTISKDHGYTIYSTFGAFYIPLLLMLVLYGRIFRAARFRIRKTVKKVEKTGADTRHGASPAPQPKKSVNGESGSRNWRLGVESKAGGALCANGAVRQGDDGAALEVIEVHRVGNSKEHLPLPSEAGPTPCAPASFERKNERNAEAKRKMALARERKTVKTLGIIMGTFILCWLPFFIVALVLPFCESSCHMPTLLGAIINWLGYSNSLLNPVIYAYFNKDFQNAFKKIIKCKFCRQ

[1] = test system: post-synaptic receptors in the hippocampus; details: cited from earlier work
[2] = in vivo; cited from earlier work
[3] = test system: presynaptic α-2-adrenoceptor; details: cited from earlier work
[4] = Open label, randomized, four-way crossover, single dose bioequivalence and pharmacokinetic study of extended-release gepirone tablets; type: in vivo, human; details: 40-80 mg dose range
Source text: Heretofore, efficacy and pharmacokinetic data for extended release gepirone tablets have been primarily obtained by administering one or multiple 20-mg extended-release gepirone tablets (similar to that described in the Preparation Example above).
To this end, an open label, randomized, four-way crossover, single dose study design was used with a washout phase of one week between different treatments. During each study period, the subjects were hospitalized from the afternoon before until 36 hours after gepirone administration. Following discharge, blood sample collections were taken at 48, 60, and 72 hours post-administration. […]
To determine the bioequivalence of one 80-mg extended-release gepirone tablet versus four 20-mg extended-release gepirone tablets the following pharmacokinetic parameter were calculated for each subject and treatment: • tmax (TMAX) • The actual time of occurrence of Cmax. • Cmax (CMAX) • The measured maximum concentration in plasma after single dosing. • dn-Cmax (DCMAX) • The dose-normalized Cmax was calculated as Cmax/Dose. • λZ (LZ) and t1/2 (THALF) • The slope (β) of the terminal log-linear phase of the concentration-versus-time curve was determined by linear regression. […] The terminal elimination rate constant (λZ) was defined as −β from which the elimination half-life (t1/2) was calculated as […]. […]

[5] = immediate-release formulations; cited from earlier work
[6] = immediate-release formulations; cited from earlier work; remark: listed apart in the source

Row | dose proportionality [4] | Structure (SMILES) | affinity for 5-HT1A receptors (5-HT1A receptors) | agonism at post-synaptic receptors in the hippocampus [1] | antidepressant-like characteristics in pre-clinical tests [2] | activity at presynaptic α-2-adrenoceptor [3] | time to maximum drug concentration of gepirone in the bloodstream (Tmax) [5] | T50 (time until 50% of the drug has been released under controlled in vitro conditions) [6]
1 |  | CC1(C)CC(=O)N(CCCCN2CCN(c3ncccn3)CC2)C(=O)C1O (centres unmarked) [3′-OH gepirone] | significant affinity | full agonism |  |  |  | 
2 |  | c1cnc(N2CCNCC2)nc1 [1-PP, 1-(2-pyrimidinyl)piperazine] |  |  | did not exhibit antidepressant-like characteristics | antagonist |  | 
3 | dose proportionality | CC1(C)CC(=O)N(CCCCN2CCN(c3ncccn3)CC2)C(=O)C1 [gepirone, 4,4-dimethyl-1-[4-[4-(2-pyrimidinyl)-1-piperazinyl]-butyl]-2,6-piperidinedione hydrochloride] |  | partial agonist |  |  | about 1 hour | 2.5 to 3 h
